The experiment has as its target T1, SENP1 (Homo sapiens, UniProt Q9P0U3).
T1 sequence (Q9P0U3 1-644): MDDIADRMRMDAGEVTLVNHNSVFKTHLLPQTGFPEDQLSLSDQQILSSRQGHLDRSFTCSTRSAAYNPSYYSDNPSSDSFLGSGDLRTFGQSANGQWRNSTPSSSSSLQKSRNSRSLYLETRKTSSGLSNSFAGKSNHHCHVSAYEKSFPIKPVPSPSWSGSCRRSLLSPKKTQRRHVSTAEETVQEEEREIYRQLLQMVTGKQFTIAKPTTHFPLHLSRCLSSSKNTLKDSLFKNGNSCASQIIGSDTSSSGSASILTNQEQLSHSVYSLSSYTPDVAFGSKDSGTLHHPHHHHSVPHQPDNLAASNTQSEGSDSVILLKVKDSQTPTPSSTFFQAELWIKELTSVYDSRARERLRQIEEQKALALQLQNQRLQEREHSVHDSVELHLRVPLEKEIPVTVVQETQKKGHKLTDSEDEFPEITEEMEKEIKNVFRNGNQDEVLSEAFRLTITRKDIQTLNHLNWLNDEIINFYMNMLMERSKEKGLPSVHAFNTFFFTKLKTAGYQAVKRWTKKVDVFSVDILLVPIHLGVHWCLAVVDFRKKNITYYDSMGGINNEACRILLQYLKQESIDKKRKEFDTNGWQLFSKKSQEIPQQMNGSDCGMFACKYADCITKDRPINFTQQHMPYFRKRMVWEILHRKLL
Kind of experiment: Cellular thermal shift assay. It counts as cell-based. Also noted: endogenous in cells; host or cells: IGROV1 CR cells. The note with it: IGROV1 CR cells, 4 h, higher temperatures. The method, then: FIGURE 2 UA directly interacts with Sentrin‐specific protease 1 (SENP1). (A) Cellular thermal shift assay to examine the interaction of UA with SENP1. IGROV1 CR cells pretreated with MG132 (10 μM, 1 h) were incubated with DMSO or UA for 4 h before being shifted to indicated temperatures. SENP1 stability was analyzed by using Western blot against SENP1 antibody. Right panel, quantification of non‐denatured SENP1 fraction shown in the left panel. (B) Cell‐free thermal shift assay to examine interactions of UA with SENP1. Purified SENP1 proteins were incubated with DMSO or UA for 4 h before being shifted to the indicated temperatures. SENP1 stability was analyzed by using Western blot against SENP1 antibody. Right panel, quantification of non‐denatured SENP1 fraction shown in the left panel. […] Stability of SENP1(C603A) was analyzed by using Western blot against SENP1 antibody. […] Left; Ultra‐high performance liquid‐chromatography‐MS/MS analyses of associated UA in indicated samples, right; quantification of data shown in left (the binding affinity of UA with SENP1‐C603A was normalized as 1). […]
FIGURE 3 Identification of UAMMC9 from UA derivatives. […] Stability of SENP1(C603A) was analyzed by using Western blot against SENP1 antibody. […]
The qu anti ficatio n of immunohistochemical sta in ing wa s scored blindly at lea st by two […]

Structures are written as SMILES.

With `C[C@H]1[C@H](C)CC[C@]2(C(=O)O)CC[C@]3(C)C(=CC[C@@H]4[C@@]5(C)CC[C@H](O)C(C)(C)[C@@H]5CC[C@]43C)[C@H]12` [UA, ursolic acid, reference compound], the “thermal stabilization of SENP1 in cells” value was “stabilized”. On to `C[C@H]1[C@H](C)CC[C@]2(C(=O)NCC(=O)N(C)CCO)CC[C@]3(C)C(=CC[C@@H]4[C@@]5(C)CC[C@H](O)C(C)(C)[C@@H]5CC[C@]43C)[C@H]12` [UAMMC9], for which the “thermal stabilization of SENP1 in cells” value was “directly interacted with SENP1”.

The values above are taken from paper PMC8710297, “Identification of potent SENP1 inhibitors that inactivate SENP1/JAK2/STAT signaling pathway and overcome platinum drug resistance in ovarian cancer” (Clinical and Translational Medicine, 2021).
